Experimental data taken from patent US12473283B2, “Compounds and their use” (Debiopharm International S.A., priority 2019, dated 2025).
Values after ≈ are worked out from the molar mass of the structure shown. Where two headings read alike, the source gives them in different places.

Columns and labels:
K. pneumoniae A6030827 = experiment: Broth microdilution MIC assay; type: cell-based; conditions: Klebsiella pneumoniae, CA-MHB, 35° C., 20 hours
Experimental: (§1) The antibacterial activity of FabI inhibitors against select Gram-negative and Gram-positive bacterial species including susceptible and multi-drug resistant A. baumannii, E. coli, K. pneumoniae and S. aureus was tested using the broth microdilution Minimal Inhibitory Concentration (MIC) assay following CLSI guidelines for insoluble compounds. Test articles were serially diluted 2-fold in 100% dimethyl sulfoxide (DMSO) and then diluted 100-fold into cation adjusted Mueller-Hinton broth (CA-MHB) to achieve a 10-point test concentration range in 1% DMSO. Final compound concentrations were 0.016-8 μg/ml for S. aureus or 0.06-32 μg/ml for the Gram-negative species. MIC test plates were then prepared by transferring 100 μl of the final assay medium (test article in CA-MHB, 1% DMSO) into the appropriate wells of a sterile, low binding 96-well polystyrene plate. Direct colony suspension inoculums of the test strains were freshly prepared per CLSI guidelines, and the appropriate test wells were inoculated to achieve a final bacterial cell density of 5×10^5 CFU/ml. Growth control (no test article) and negative control (no bacterial inoculum) wells were also included. Exposure to light was minimized during all stages of assay preparation. […] Bacterial growth was then determined by measuring the optical density at 600 nm (OD600) using a SpectraMax Plus plate-reader spectrophotometer.

S. aureus ATCC 29213 = experiment: Broth microdilution MIC assay; type: cell-based; conditions: Staphylococcus aureus, ATCC29213; CA-MHB, 35° C., 20 hours
Experimental: as §1

[1] = system: A. baumannii ATCC BAA1605; experiment: Broth microdilution MIC assay; type: cell-based; conditions: Acinetobacter baumannii, ATCCBAA1605; CA-MHB, 35° C., 20 hours
Experimental: as §1

E. coli AG100 = experiment: Broth microdilution MIC assay; type: cell-based; conditions: Escherichia coli, CA-MHB, 35° C., 20 hours
Experimental: as §1

[2] = biological target: FabI enzyme from Acinetobacter baumannii (Acinetobacter baumannii, UniProt D0CAD5); experiment: Inhibition of FabI enzyme, rate of NADH consumption; type: biochemical
Experimental: (§2) Inhibition of FabI enzyme from Acinetobacter baumannii and Escherichia coli was tested by measuring the rate of NADH consumption (Δabsorbance at 340 nm/min) at 30° C. in 96-well plate format using an automated plate reader in the presence or absence of the test compounds. The assay mixture contained 100 mM Tris-HCl, pH 7.25 (A. baumannii) or 7.5 (E. coli), 100 mM ammonium acetate, 0.02% (A. baumannii) or 0.05% (E. coli) Pluronic F-68, 25 μM crotonyl ACP, 50 μM NADH, 25 pM (A. baumannii) or 50 pM (E. coli) recombinant FabI protein, and 7.5% DMSO. Test compounds were added at concentrations ranging from 0.17 to 10,000 nM in a final well volume of 100 μl. This dose-response inhibitory assay was performed using a 10-point, serial dilution series for each test compound. IC50 values for each test compound were assigned from logistical sigmoid curve-fitting of the inhibition dose response curves.

[3] = biological target: FabI enzyme from Escherichia coli (Escherichia coli, UniProt P0AEK4); experiment: as above; type: biochemical; conditions: recombinant FabI, 30° C., pH 7.5; read-out: E. coli Fabl IC50
Experimental: as §2

[4] = system: Acinetobacter baumannii ATCC 17978; experiment: MIC against the in vivo test strain; type: cell-based; conditions: A. baumannii ATCC 17978; for MIC: Acinetobacter baumannii, ATCC17978
Experimental: as §1
(§3) On day 0, animals were inoculated intramuscularly (0.1 ml/thigh) with a 1.67×10^4 inoculum count of Acinetobacter baumannii ATCC 17978. Vehicle control (40% Captisol), positive control (tigecycline) or test substances were then administered 2 hr post infection by the subcutaneous (SC) route of administration. Each dosing group consisted of 5 female mice. The MICs of the compounds against the test strain were 8 μg/ml, 2 μg/ml and […] for compound 201, compound 71 and compound 200, respectively. At 26 or 74 hours after inoculation (24 or 72 hr after treatment initiation), animals were euthanized with CO2 asphyxiation and the thigh tissue harvested from each of the test animals. The tissues were homogenized in 3 mL of PBS, pH 7.4 with a homogenizer. Homogenates, 0.1 mL, were used for serial 10-fold dilutions and plated onto NB agar for colony counts. Efficacy is calculated as the change in log CFU/g thigh vs. the time 0 (treatment initiation) control.
[…]

[5] = system: Acinetobacter baumannii ATCC 17978; experiment: Mouse thigh infection model; type: in vivo, BALB/c mice; conditions: for Mean Change log CFU/g thigh 72 hr / Mean Change log CFU/g thigh 24 hr: vs. time 0 control; for Mean Log CFU/g thigh 72 hr: 72 hr treatment; for Mean Log CFU/g thigh 24 hr: 24 hr treatment
Experimental: (§4) Groups of 5 female specific-pathogen-free BALB/c mice weighing 18±2 g were used. In the 24 hr model (bacterial counts determined 24 hr after treatment start), mice were rendered neutropenic with cyclophosphamide intraperitoneal (IP) administration conducted at Days −4 (150 mg/kg), and day −1 (100 mg/kg). In the 72 hr model (bacterial counts determined 72 hr after treatment start), animals were rendered persistently neutropenic for the duration of the infection period with cyclophosphamide intraperitoneal (IP) administration conducted at Days −4 (150 mg/kg), −1 (100 mg/kg) and +1 (100 mg/kg). Persistent neutropenia is required to prevent pathogen clearance from thigh tissue in the 74 hr model. Nutritional supplementation (diet gel) plus saline SC injections were provided daily to help animals tolerate the cyclophosphamide treatment.
as §3

A. baumannil ATCC 17978 = experiment: Mouse lung infection model; type: in vivo, BALB/c mice; conditions: for Mean change log CFU/g lung 24 hr / Mean change log CFU/g lung 72 hr: vs. time 0 control; for Mean Log CFU/g lung 24 hr: 24 hr treatment; for Mean Log CFU/g lung 72 hr: 72 hr treatment
Experimental: as §4, with “lung” for “thigh”
On day 0, animals were anesthetized with etomidate-lipuro emulsion (20 mg/10 mL; 20 mg/kg dose, IV) and then inoculated intranasally with an A. baumannil ATCC 17978 suspension, 1.36×10^5 CFU/mouse, 0.02 mL/mouse. Vehicle control (40% Captisol), positive control (tigecycline) or test substances were then administered 2 hr post infection by the subcutaneous (SC) route of administration. Each dosing group consisted of 5 female mice. The MICs of the compounds against the test strain were 8 μg/ml and 0.5 μg/ml for compound 201 and compound 200, respectively. At 26 or 74 hours after inoculation (24 or 72 hr after treatment initiation), animals were euthanized with CO2 asphyxiation and the lung tissue harvested from each of the test animals. The tissues were homogenized in 1 ml of PBS, pH 7.4 with a homogenizer. Homogenates, 0.1 mL, were used for serial 10-fold dilutions and plated onto MacConkey II agar for colony counts. Efficacy is calculated as the change in log CFU/g […] vs. the time 0 (treatment initiation) control.

[6] = recombinant FabI, 30° C., pH 7.25, read-out: A. baumannii Fabl IC50
[7] = 25 mg/kg q6h SC, total daily dose 100 mg/kg
[8] = 50 mg/kg q6h SC, total daily dose 200 mg/kg
[9] = following both 24 hr and 72 hr treatment, SC

FabI enzyme from Acinetobacter baumannii, sequence (D0CAD5 entry or part of it): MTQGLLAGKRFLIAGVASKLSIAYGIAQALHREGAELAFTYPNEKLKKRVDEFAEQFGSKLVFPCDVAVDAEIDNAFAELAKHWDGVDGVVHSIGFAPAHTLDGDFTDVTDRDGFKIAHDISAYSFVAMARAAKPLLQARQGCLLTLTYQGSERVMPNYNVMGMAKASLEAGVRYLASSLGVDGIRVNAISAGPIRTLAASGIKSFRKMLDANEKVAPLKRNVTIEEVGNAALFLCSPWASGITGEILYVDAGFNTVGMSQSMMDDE
FabI enzyme from Escherichia coli, sequence (P0AEK4 whole entry): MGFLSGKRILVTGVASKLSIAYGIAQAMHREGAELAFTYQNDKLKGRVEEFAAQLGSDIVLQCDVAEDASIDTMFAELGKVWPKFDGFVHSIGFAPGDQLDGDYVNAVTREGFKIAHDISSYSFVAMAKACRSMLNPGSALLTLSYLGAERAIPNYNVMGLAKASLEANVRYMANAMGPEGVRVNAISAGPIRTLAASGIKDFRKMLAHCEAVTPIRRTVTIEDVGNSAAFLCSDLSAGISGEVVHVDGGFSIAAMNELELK

SMILES | MIC (K. pneumoniae A6030827) [µg/mL] | MIC (S. aureus ATCC 29213) [µg/mL] | MIC [1] [µg/mL] | MIC (E. coli AG100) [µg/mL] | IC50 [2, 6] [nM] | IC50 [3] [nM] | MIC [4] [µg/mL] | Mean Change log CFU/g thigh 72 hr ([5]; 25 mg/kg q6h SC) [log CFU/g thigh] | Mean Log CFU/g thigh 72 hr [5, 7] [log CFU/g thigh] | Mean Change log CFU/g thigh 24 hr ([5]; 50 mg/kg q6h SC) [log CFU/g thigh] | Mean Change log CFU/g thigh 72 hr ([5]; 50 mg/kg q6h SC) [log CFU/g thigh] | Mean Log CFU/g thigh 24 hr [5, 8] [log CFU/g thigh] | Mean Log CFU/g thigh 72 hr [5, 8] [log CFU/g thigh] | Mean change log CFU/g lung 24 hr (A. baumannil ATCC 17978; 25 mg/kg q6h SC) [log CFU/g lung] | Mean change log CFU/g lung 72 hr (A. baumannil ATCC 17978; 25 mg/kg q6h SC) [log CFU/g lung] | Mean Log CFU/g lung 24 hr (A. baumannil ATCC 17978; [7]) [log CFU/g lung] | Mean Log CFU/g lung 72 hr (A. baumannil ATCC 17978; [7]) [log CFU/g lung] | Mean change log CFU/g lung 24 hr (A. baumannil ATCC 17978; 50 mg/kg q6h SC) [log CFU/g lung] | Mean change log CFU/g lung 72 hr (A. baumannil ATCC 17978; 50 mg/kg q6h SC) [log CFU/g lung] | Mean Log CFU/g lung 24 hr (A. baumannil ATCC 17978; [8]) [log CFU/g lung] | also measured
Cc1c(CN(C)C(=O)/C=C/c2cnc3c(c2)NC[C@H](N)C(=O)N3)oc2ccccc12 [Compound 8, (S,E)-3-(3-amino-4-oxo-2,3,4,5-tetrahydro-1H-pyrido[2,3-b][1,4]diazepin-8-yl)-N-methyl-N-((3-methylbenzofuran-2-yl)methyl)acrylamide] | ≤ 4 | ≤ 4 | ≤ 4 | ≤ 4 | < 10 | < 10 | – | – | – | – | – | – | – | – | – | – | – | – | – | – | –
Cc1c(CN(C)C(=O)/C=C/c2cnc3c(c2)CCC(N2CCCC2)C(=O)N3)oc2ccccc12 (stereo not drawn) [Compound 182, (E)-N-methyl-N-((3-methylbenzofuran-2-yl)methyl)-3-(8-oxo-7-(pyrrolidin-1-yl)-6,7,8,9-tetrahydro-5H-pyrido[2,3-b]azepin-3-yl)acrylamide] | ≤ 4 | ≤ 4 | ≤ 4 | ≤ 4 | < 10 | < 10 | – | – | – | – | – | – | – | – | – | – | – | – | – | – | –
Cc1oc2ccccc2c1CN(C)C(=O)/C=C/c1cnc2c(c1)CC[C@H](N)C(=O)N2 [Compound 200, (S,E)-3-(7-amino-8-oxo-6,7,8,9-tetrahydro-5H-pyrido[2,3-b]azepin-3-yl)-N-methyl-N-((2-methylbenzofuran-3-yl)methyl)acrylamide] | – | ≤ 4 | ≤ 4 | ≤ 4 | < 10 | – | 0.5 (≈ 1.24 µM) | −2.27 | 2.58 | −2.53 | −2.14 | 2.31 | 2.71 | −2.44 | −2.21 | 3.86 | 4.09 | −3.50 | −3.39 | 2.80 | MIC against the test strain [4]: 0.5 µg/mL (≈ 1.24 µM); efficacy (log kill), thigh model [5, 9]: 2.1-2.4 log kill; Mean Log CFU/g lung 72 hr (A. baumannil ATCC 17978; [8]): 2.91 log CFU/g lung; efficacy (log kill), lung model (A. baumannil ATCC 17978; [9]): 2.5-3.5 log kill
Cc1c(CN(C)C(=O)/C=C/c2cnc3c(c2)CC(N)C(=O)N3)oc2ccccc12.Cl (stereo not drawn) [Compound 201, (E)-3-(6-amino-7-oxo-5,6,7,8-tetrahydro-1,8-naphthyridin-3-yl)-N-methyl-N-((3-methylbenzofuran-2-yl)methyl)acrylamide hydrochloride, reference compound] | – | – | 16 | 8 | – | – | 8 | 2.24 | 7.09 | 2.26 | 1.86 | 7.11 | 6.70 | 1.02 | 0.21 | 7.32 | 6.51 | 0.26 | −0.35 | 6.56 | efficacy in words, thigh model summary ([5]; SC, 24 hr and 72 hr treatment): no efficacy; IC50 [2]: 19 nM; Mean Log CFU/g lung 72 hr (A. baumannil ATCC 17978; [8]): 5.95 log CFU/g lung; efficacy in words, lung model summary (A. baumannil ATCC 17978; SC, 24 hr and 72 hr treatment): very slight efficacy
